Results on 3 substances are retold here after patent publication US20180030091A1, “COLLAGEN-BINDING SYNTHETIC PEPTIDOGLYCANS FOR USE IN VASCULAR INTERVENTION” (Purdue Research Foundation, priority 2010, published 2018).

One data set concerns the target T1, Monomeric collagen (Bos taurus, UniProt P02453+P02465).
T1 construct: purchased Advanced Biomatrix 5010
Kind of data set: Fluorescence binding of dansyl-labeled DS-peptide conjugates to immobilized collagen. As to conditions: 100 μM to 10 nM; 30 min at 37° C. Here is the method:
In order to determine whether the peptide conjugate maintained its ability to bind to collagen after its conjugation to DS, a fluorescent binding assay was performed. A fluorescently labeled version of SILY, Z-SILY, was synthesized by adding dansylglycine to the amine terminus. This peptide was conjugated to DS and purified using the same methods described for SILY.
Binding assays were done in a 96-well high binding plate, black with a clear bottom (Costar). Collagen was compared to untreated wells and BSA coated wells. Monomeric collagen (Advanced Biomatrix Cat. No. 5010) and BSA were immobilized at 37° C. for 1 hr by incubating 90 μL/well at concentrations of 2 mg/mL in 10 mM HCl and 1×PBS respectively. Each well was washed 3× with 1×PBS after incubating.
Wells were preincubated with DS at 37° C. for 30 min to eliminate nonspecific binding of DS to collagen. Wells were rinsed 3× with 1×PBS before incubating with DS-Z-SILY. […] Fluorescence readings were taken on an M5 Spectramax Spectrophotometer (Molecular Devices) at excitation/emission wavelengths of 335 nm/490 nm, respectively.
Fluorescence binding of DS-Z-SILY on immobilized collagen, BSA, and untreated wells are compared in FIG. 7. […]
The fluorescence binding assays described for DS-ZSILY was performed with peptide sequence ZSYIRIADTNITGC (ZDc13) (SEQ ID NO: 30).

For data set [1], the system named is Human platelets on Type I fibrillar collagen. Kind of data set: Inhibition of platelet activation on fibrillar collagen after 24 hour rinse (PF4, NAP2). The data set is classed as cell-based. As to conditions: 50 μM, incubated 15 min, rinsed for 24 hours. Here is the method:
Type I fibrillar collagen from Chronolog was diluted in isotonic glucose to a concentration of 50 μg/mL. 50 μL of collagen solution was added to each well of a high bind 96-well plate. The plate was incubated overnight at 4° C., and then rinsed 3× with 1×PBS. For microplate assays, peptidoglycan was diluted in 1×PBS at concentrations between 0.0001 μM to 100 μM and 50 μL solution was added to the collagen coated wells. DS, peptide, or 1×PBS were also added to collagen coated wells as controls. Treatments were incubated at 37° C. with shaking at 200 rpm for 15 min. Wells were then rinsed of unbound treatment by removing the treatment solution, adding PBS, and shaking the wells for 24 hours. During the 24 hours, PBS solution was changed 3 times.
Human whole blood was collected from healthy volunteers by venipuncture. The first 5 mL of blood was discarded and approximately 20 mL was then collected into citrated glass vacutainers (BD Bioscience). Blood was centrifuged in the glass tube for 20 min at 200 g at 25° C. The top layer of the centrifuged blood, the platelet rich plasma (PRP), was used for platelet experiments.
PRP (50 μL/well) was added to the microplate for 1 hour at room temperature without shaking. After 1 hour of incubation, 45 μL of PRP was removed from each well and added to a microcentrifuge tube containing […] ETP (107 mM EDTA, 12 mM theophylline, and 2.8 mM prostaglandin E1) to inhibit further platelet activation. These tubes were spun at 4° C. for 30 min at 2000 g to pellet the platelets. The supernatant (platelet serum) was collected for ELISA studies to test for the presence of platelet activation markers PF-4 and NAP2. Sandwich ELISAs were utilized in order to detect each protein. The components for both sandwich ELISAs were purchased from R&D Systems and the provided protocols were followed. Platelet serum was diluted 10,000 times in 1% BSA in 1×PBS for values to fall within a linear range.
Platelet activation was measured through release of platelet factor 4 (PF4) and β-thromboglobulin (NAP2). […] Since the high SILY/DS ratio is expected to provide higher binding affinity to the collagen surface due to multiple interactions, peptidoglycans with the higher SILY/DS ratios were prepared.
The number of peptides per DS molecule was further increased to 18 to create the peptidoglycan DS-SILY18, and the concentration of molecule needed to inhibit platelet activation was tested. […] Within solubility limits, the number of peptides can be increased to achieve maximal platelet inhibition as well as to reduce diffusion over time, where a higher level of peptidoglycans on the denuded vessel wall is sustained.

A further data set relates to HCA SMCs. As to the kind of experiment: Elastin measurement by Fastin assay. The data set is classed as cell-based, Human. As to conditions: gels cultured for 10 days. Here is the method: Collagen gels seeded with HCA SMCs were prepared as described in EXAMPLE 25. Differentiation medium was changed every three days and gels were cultured for 10 days. Collagen gels containing no cells were used as a control. Gels were rinsed in 1×PBS overnight to remove serum protein, and gels were tested for elastin content using the Fastin elastin assay per manufacturers protocol (Biocolor, County […].). Briefly, gels were solubilized in 0.25 M oxalic acid by incubating at 100° C. for 1 hr. Elastin was precipitated and samples were then centrifuged at 11,000×g for 10 min. The solubilized collagen supernatant was removed and the elastin pellet was stained by Fastin Dye Reagent for 90 min at room temperature. Samples were centrifuged at 11,000×g for 10 min and unbound dye in the supernatant was removed. Dye from the elastin pellets was released by the Fastin Dye Dissociation Reagent, and 100 μL samples were transferred to a 96-well plate (Costar). Absorbance was measured at 513 nm, and elastin content was calculated from an α-elastin standard curve.

The target of data set [2] is T2, collagen (Bos taurus, UniProt P02453+P02465).
T2 construct: purchased Inamed, Freemont, Calif; (Nutragen)
Kind of data set: Collagen fibrillogenesis by turbidity at 313 nm. The data set is classed as biochemical. As to conditions: 4 mg/mL collagen, 10:1 collagen:treatment unless otherwise indicated. On the procedure:
Collagen fibrillogenesis was monitored by measuring turbidity related absorbance at 313 nm providing information on rate of fibrillogenesis and fibril diameter. Gel solutions were prepared as described in EXAMPLE 15 (4 mg/mL collagen, 10:1 collagen:treatment, unless otherwise indicated) and 50 uL/well were added at 4° C. to a 384-well plate. The plate was kept at 4° C. for 4 hours before initiating fibril formation. A SpectraMax M5 at 37° C. was used to measure absorbance at 313 nm at 30 s intervals for 6 hours.
A fibrillogenesis assay as described for DS-SILY, EXAMPLE 17, performed with the conjugate DS-Dc13.

For data set [3], the target named is T2, collagen. Kind of data set: Cryo-SEM measurement of fibril density. As to conditions: 10:1 molar ratio, cryo-SEM 10,000×. Here is the method: Collagen gels were formed in the presence of each additive at a 10:1 molar ratio, as described in EXAMPLE 15, directly on the SEM stage, processed, and imaged as described. Images at 10,000× were analyzed for fibril density calculations. Images were converted to 8-bit black and white, and threshold values for each image were determined using ImageJ software (NIH). The threshold was defined as the value where all visible fibrils are white, and all void space is black. The ratio of white to black area was calculated using MatLab software. All measurements were taken in triplicate and thresholds were determined by an observer blinded to the treatment.

Data set [4] relates to Human platelet-rich plasma on fibrillar collagen. Kind of data set: Platelet binding to collagen under flow. The data set is classed as cell-based. To be noted: 50 μM for 15 min; 2 mL/hr for 1 hour, shear rate 355 s^−1. Here is the method:
To mimic physiologic conditions with flowing blood, platelet binding to collagen surfaces under flow conditions was evaluated. Flow kits were obtained from Ibidi (Munchen, Germany). Each channel was coated with fibrillar collagen (Chronolog). Excess collagen was removed from the flow channel by pushing 1×PBS through the channel with a syringe. DS-SILY18 was incubated in the channel at a concentration of 50 μM for 15 min at 37° C., and unbound peptidoglycan was rinsed by pushing 1×PBS through the channel with a syringe. The control channel consisted of collagen not treated with peptidoglycan.
Platelet rich plasma was pushed through the channels at 2 mL/hr for 1 hour, corresponding to a shear stress of 3.55 dynes/cm^2 and a shear rate of 355 s^−1. Unbound platelets were rinsed from the channel by pushing through 1×PBS. Adhered platelets were fixed in the channel with 10% formaldehyde. Platelets were permeabilized and actin filaments were stained with phalloidin-Alexa Fluor 488 (Invitrogen).

The target of data set [5] is T2, collagen. Kind of data set: Viscoelastic characterization of collagen gels containing Dc13 or DS-Dc13. As to conditions: varying ratios of collagen to additive. Here is the method:
Collagen gels were prepared, as in EXAMPLE 15. Viscoelastic characterization was performed as described in EXAMPLE 16 on gels formed with varying ratios of collagen to additive (treatment).

The subject of data set [6] is Human coronary artery smooth muscle cells (HCA SMC). As to the kind of experiment: Gel compaction by smooth muscle cells in collagen gels. As to conditions: Day 7. The data set is classed as cell-based. Here is the method: Human coronary artery smooth muscle cells (HCA SMC) (Cascade Biologics) were cultured in growth medium (Medium 231 supplemented with smooth muscle growth factor). Cells from passage 3 were used for all experiments. Differentiation medium (Medium 231 supplemented with 1% FBS and 1×pen/strep) was used for all experiments unless otherwise noted.
Collagen gels were prepared with each additive as described with the exception that the 1×PBS sample addition was omitted to accommodate the addition of cells in media. After incubating on ice for 30 min, HCA SMCs in differentiation medium were added to the gel solutions to a final concentration of 1×10^6 cells/mL. Gels were formed in quadruplicate in 48-well non-tissue culture treated plates (Costar) for 6 hrs before adding 500 μL/well differentiation medium. Gels were freed from the well edges after 24 hrs. Medium was changed every 2-3 days and images for compaction were taken at the same time points using a Gel Doc System (Bio-Rad). The cross-sectional area of circular gels correlating to degree of compaction was determined using ImageJ software (NIH). Gels containing no cells were used as a negative control and cells in collagen gels absent additive were used as a positive control. By day 10 all gels had compacted to approximately 10% of the original gel area, and differences between additives were small.

Where no end group is shown, it is not given here. The star is where a group is joined. Dansyl = CN(C)c1cccc2c(S(=O)(=O)*)cccc12

T2 sequence (P02453 162-1217 limits assumed): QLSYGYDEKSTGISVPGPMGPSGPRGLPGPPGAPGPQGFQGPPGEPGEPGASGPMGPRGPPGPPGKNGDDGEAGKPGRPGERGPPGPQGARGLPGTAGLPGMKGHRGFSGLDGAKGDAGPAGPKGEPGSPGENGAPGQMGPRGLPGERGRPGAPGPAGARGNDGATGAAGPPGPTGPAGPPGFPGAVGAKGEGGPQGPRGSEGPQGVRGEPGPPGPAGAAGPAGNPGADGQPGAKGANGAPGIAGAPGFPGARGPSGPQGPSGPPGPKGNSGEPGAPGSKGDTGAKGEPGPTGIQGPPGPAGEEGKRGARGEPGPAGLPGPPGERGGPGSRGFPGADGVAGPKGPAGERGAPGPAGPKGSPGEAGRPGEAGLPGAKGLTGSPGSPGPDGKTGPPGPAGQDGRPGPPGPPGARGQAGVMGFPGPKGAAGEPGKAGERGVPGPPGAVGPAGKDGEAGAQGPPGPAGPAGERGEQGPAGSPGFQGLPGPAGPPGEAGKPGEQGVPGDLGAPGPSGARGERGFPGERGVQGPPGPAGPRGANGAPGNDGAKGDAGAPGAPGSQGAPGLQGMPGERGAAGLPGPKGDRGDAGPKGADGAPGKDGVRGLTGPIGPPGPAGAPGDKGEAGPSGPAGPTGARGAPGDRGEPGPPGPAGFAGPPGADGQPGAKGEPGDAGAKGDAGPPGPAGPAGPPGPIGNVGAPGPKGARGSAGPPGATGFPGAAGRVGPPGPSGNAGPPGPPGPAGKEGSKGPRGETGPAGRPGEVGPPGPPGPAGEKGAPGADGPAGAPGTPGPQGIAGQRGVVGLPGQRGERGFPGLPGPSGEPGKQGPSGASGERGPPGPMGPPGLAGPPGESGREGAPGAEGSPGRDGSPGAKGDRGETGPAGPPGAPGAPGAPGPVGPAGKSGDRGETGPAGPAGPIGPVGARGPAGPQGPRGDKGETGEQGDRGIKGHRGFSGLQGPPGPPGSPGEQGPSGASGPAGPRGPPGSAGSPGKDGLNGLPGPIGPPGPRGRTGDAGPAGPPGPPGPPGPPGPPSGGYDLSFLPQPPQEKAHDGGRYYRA
T2 sequence (P02465 80-1117 limits assumed): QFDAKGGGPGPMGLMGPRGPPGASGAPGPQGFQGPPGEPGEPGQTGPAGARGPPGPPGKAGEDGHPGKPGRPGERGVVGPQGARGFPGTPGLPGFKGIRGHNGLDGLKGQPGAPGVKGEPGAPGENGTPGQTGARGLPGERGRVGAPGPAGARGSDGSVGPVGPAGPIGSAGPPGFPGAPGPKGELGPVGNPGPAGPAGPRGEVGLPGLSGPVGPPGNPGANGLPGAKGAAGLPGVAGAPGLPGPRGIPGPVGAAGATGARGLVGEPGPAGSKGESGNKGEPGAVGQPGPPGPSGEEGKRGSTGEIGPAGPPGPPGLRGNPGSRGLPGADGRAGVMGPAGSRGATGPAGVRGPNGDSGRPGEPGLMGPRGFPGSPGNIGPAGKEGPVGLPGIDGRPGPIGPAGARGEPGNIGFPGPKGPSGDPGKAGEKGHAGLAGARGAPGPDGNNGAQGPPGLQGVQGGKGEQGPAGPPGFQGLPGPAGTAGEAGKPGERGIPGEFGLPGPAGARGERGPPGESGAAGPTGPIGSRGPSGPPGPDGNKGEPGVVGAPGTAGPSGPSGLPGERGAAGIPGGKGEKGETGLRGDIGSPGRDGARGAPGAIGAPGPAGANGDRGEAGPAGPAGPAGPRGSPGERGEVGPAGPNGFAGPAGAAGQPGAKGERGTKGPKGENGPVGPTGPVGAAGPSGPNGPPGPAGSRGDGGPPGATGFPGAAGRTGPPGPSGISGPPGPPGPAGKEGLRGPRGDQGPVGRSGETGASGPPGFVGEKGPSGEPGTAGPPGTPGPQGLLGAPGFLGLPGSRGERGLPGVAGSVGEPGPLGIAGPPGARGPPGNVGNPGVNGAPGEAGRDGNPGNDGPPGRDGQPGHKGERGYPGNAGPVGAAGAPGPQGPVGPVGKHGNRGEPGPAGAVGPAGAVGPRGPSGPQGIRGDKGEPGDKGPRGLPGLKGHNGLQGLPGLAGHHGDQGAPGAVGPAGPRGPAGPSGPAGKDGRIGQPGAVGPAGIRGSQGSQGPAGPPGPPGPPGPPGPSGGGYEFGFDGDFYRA
T1 sequence (P02453 162-1217 limits assumed): as the sequence (P02453 162-1217 limits assumed) above
T1 sequence (P02465 80-1117 limits assumed): as the sequence (P02465 80-1117 limits assumed) above

For the substance “DS-Z-SILY: dermatan sulfate conjugated to Z-SILY (Dansyl-GRRANAALKAGELYKSILYGC-NH2; also: dermatan sulfate conjugate)”, the “fluorescence binding to collagen versus BSA and untreated wells” value with Monomeric collagen was “binds specifically to the collagen-treated wells over BSA and untreated wells”.
Turning to “DS-SILY: dermatan sulfate-RRANAALKAGELYKSILYGC conjugate; SILY/DS ratio 1.06 in Example 2, varied ratios in Example 36 (RRANAALKAGELYKSILYGC-NH2; not fully specified (residue 20); also: dermatan sulfate conjugate, SILY/DS ratio 1.06 or varied)”, in data set [1], the “inhibition of platelet activation (release of PF4 and NAP2)” value was “able to inhibit collagen mediated platelet activation”. Further, the elastin production entry with HCA SMCs is recorded as “significantly increased elastin production over all samples”. Further, in the data set with collagen [2], the “fibrillogenesis (absorbance at 313 nm)” value is listed as “decreases the rate of fibrillogenesis”. Further, the “fibril density (ratio of fibril containing area to void space)” value in the data set with collagen [3] was “significantly greater fibril density”. Moreover, the “platelets bound to collagen under flow” value in data set [4] is on record as “significantly fewer bound platelets on the peptidoglycan treated surface”.
Consider dermatan sulfate [DS], for which the “inhibition of platelet activation (release of PF4 and NAP2)” value in data set [1] was “little to no effect on inhibiting platelet activation”. Moreover, the elastin production result in the data set with HCA SMCs is given as “significantly decreased elastin production over untreated collagen”. Moreover, the “stiffness (storage modulus G′) of collagen gel” value at collagen [5] is given as “increase the stiffness of the resulting collagen gel over untreated collagen”. Also, in data set [6], the “gel compaction, day 7” value is “significant compared to collagen”.
